# Results reported in patent US8313736B2, “Chemically stable ingredients as lemon odorant” (Firmenich SA, priority 2008, dated 2012).
# How the values were obtained:
# [1] = test system: Mammalian Erythrocyte Micronucleus; experiment: In vivo test for clastogenic effects, Mammalian Erythrocyte Micronucleus Test (OECD 474)
# From the text: In vivo test for clastogenic effects performed on 3,6,7-trimethyl-2,6-octadienenitrile and 3,7-dimethyl-2,6-octadienenitrile under the conditions required by the standard test protocol for Mammalian Erythrocyte Micronucleus Test (OECD 474, OECD web site http://lysander.sourceoecd.org/v1=155221/c1=19/nw=1/rpsv/ij/oecdjournals/1607310x/v1n 4/s39/p1) gave the following results: • 3,6,7-trimethyl-2,6-octadienenitrile: the test was negative (i.e. no perceived toxicity) in the dose range between 200-1200 mg/kg. • 3,7-dimethyl-2,6-octadienenitrile: the test was positive (i.e. perceived toxicity) in the dose range between 500-1250 mg/kg (overlapping the dose range of the invention compound herein above). This ingredient has been banned for its clastogenic effect.
# [2] = reason for ban; cited from earlier work
SMILES,Clastogenicity (induction of chromosome-damages) ([1]; E and Z isomers or a mixture thereof),Mammalian Erythrocyte Micronucleus Test result (clastogenic effects) ([1]; dose range between 200-1200 mg/kg),Mammalian Erythrocyte Micronucleus Test result (clastogenic effects) ([1]; dose range between 500-1250 mg/kg),Mutagenicity [2]
"CC(=CC#N)CCC(C)=C(C)C [3,6,7-trimethyl-2,6-octadienenitrile]",not clastogenic,negative,,
"CC(C)=CCCC(C)=CC#N [3,7-dimethyl-2,6-octadienenitrile]",,,positive,mutagenic
